Source: patent publication US20260055108A1, “TRIAZINE COMPOUNDS AND USES THEREOF” (HUTCHMED LIMITED, priority 2022, published 2026)

Key:
[1] = system: MV-4-11 cells (human acute myelogenous leukemia cell line carrying MLL-AF4 mutation); assay: Cell proliferation assay, MV-4-11 (CellTiter-Glo); format: cell-based; settings: Homo sapiens, MV4-11, 72 h, MV-4-11 cells, 3 days treatment, CellTiter-Glo; read-out: GI50
Summary of the method: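 MV-4-11 cells (3000/well, IMDM with 10% HIFBS and 50 μM β-mercaptoethanol) exposed to compound at 1.100–0.001 μM final, 0.1% DMSO, for 3 days at 37°C. Viability read by CellTiter-Glo luminescence on day 0 and day 3, normalised to day-0 and untreated wells.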

[2] = target: Recombinant human Menin protein (2-610) / MLL polypeptide binding (Homo sapiens (Human), UniProt O00255); assay: Menin and MLL protein binding at a molecular level (fluorescence polarization method); settings: inhibition of Menin / MLL polypeptide binding
Summary of the method: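 Binding of recombinant human Menin (2-610) to 6-FAM-labelled MLL peptide measured by fluorescence polarization (ex 480/em 535 nm) in Tris/NaCl/TCEP buffer, pH 7.5, 2% DMSO. Compound preincubated with Menin 30 min at room temperature, then peptide added for 30 min in the dark. Tested at 1.000 down to 0.0005 μM final.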

Sequence of Recombinant human Menin protein (2-610) / MLL polypeptide binding (O00255 2-610): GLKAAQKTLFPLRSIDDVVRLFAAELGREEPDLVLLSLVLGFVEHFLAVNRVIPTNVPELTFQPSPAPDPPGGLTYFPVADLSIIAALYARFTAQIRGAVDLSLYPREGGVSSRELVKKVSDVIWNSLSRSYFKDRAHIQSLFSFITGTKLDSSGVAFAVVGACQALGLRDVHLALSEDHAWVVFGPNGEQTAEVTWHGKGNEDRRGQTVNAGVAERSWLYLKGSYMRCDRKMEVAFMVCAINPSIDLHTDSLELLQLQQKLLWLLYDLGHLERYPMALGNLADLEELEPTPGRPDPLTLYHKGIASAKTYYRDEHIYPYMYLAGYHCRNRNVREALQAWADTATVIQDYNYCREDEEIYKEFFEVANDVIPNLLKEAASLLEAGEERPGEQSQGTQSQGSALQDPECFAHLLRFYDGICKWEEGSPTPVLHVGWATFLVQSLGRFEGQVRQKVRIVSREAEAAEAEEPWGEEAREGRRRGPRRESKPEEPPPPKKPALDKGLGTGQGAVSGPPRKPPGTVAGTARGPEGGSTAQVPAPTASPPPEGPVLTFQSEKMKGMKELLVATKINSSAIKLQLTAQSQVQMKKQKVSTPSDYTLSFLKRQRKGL

COc1cc(N2CCC(CN3CCC4(CC3)CN(c3ncnnc3Oc3ccc(Cl)cc3)C4)CC2)nnc1OC [Compound 103]
GI50 [1]: 107 nM | IC50 [2]: 114 nM

COc1cc(N2CCC(CN3CCC4(CC3)CN(c3ncnnc3Oc3ccc(F)c5c3cnn5C(C)C)C4)CC2)nnc1OC [Compound 104]
GI50 [1]: > 3300 nM | IC50 [2]: > 1000 nM

COc1cc(N2CCC(CN3CCC4(CC3)CN(c3ncnnc3Oc3ccc(F)cc3C(=O)OC(C)C)C4)CC2)nnc1OC [Compound 106]
GI50 [1]: 7 nM | IC50 [2]: 0.9 nM

CCN(C(=S)c1cc(F)ccc1Oc1nncnc1N1CC2(CCN(CC3CCN(c4cc(OC)c(OC)nn4)CC3)CC2)C1)C(C)C [Compound 107]
GI50 [1]: 9 nM | IC50 [2]: 3.3 nM

CCN(C(=O)c1cc(F)ccc1Oc1nncnc1N1CC2(CCN(CC3CCN(c4cc5c(nn4)OCCO5)CC3)CC2)C1)C(C)C [Compound 108]
GI50 [1]: 60 nM | IC50 [2]: 21.6 nM

CCN(C(=O)c1cc(F)ccc1Oc1nncnc1N1CC2(CCN(CC3CCN(c4cnnc(OC)c4)CC3)CC2)C1)C(C)C [Compound 109]
GI50 [1]: 6 nM | IC50 [2]: 7.4 nM

CCN(C(=O)c1cc(F)ccc1Oc1nncnc1N1CC2(CCN(CC3CCN(c4cc(OC)c(OC)cn4)CC3)CC2)C1)C(C)C [Compound 110]
GI50 [1]: 3 nM | IC50 [2]: 0.7 nM

CCN(C(=O)c1cc(F)ccc1Oc1nncnc1N1CC2(CCN(CC3CCN(c4cnc(OC)c(OC)c4)CC3)CC2)C1)C(C)C [Compound 111]
GI50 [1]: 8 nM | IC50 [2]: 5.2 nM

CCN(C(=O)c1cc(F)ccc1Oc1nncnc1N1CC2(CCN(CC3CCN(c4ccc(OC)cn4)CC3)CC2)C1)C(C)C [Compound 112]
GI50 [1]: 5 nM | IC50 [2]: 5.9 nM

CCN(C(=O)c1cc(F)ccc1Oc1nncnc1N1CC2(CCN(CC3CCN(c4cc(OC)ccn4)CC3)CC2)C1)C(C)C [Compound 113]
GI50 [1]: 4 nM | IC50 [2]: 1.9 nM

CCN(C(=O)c1cc(F)ccc1Oc1nncnc1N1CC2(CCN(CC3CCN(c4ccnc(OC)c4)CC3)CC2)C1)C(C)C [Compound 114]
GI50 [1]: 3 nM | IC50 [2]: 2.3 nM

CCN(C(=O)c1cc(F)ccc1Oc1nncnc1N1CC2(CCN(CC3CCN(c4ccc(C#N)nc4)CC3)CC2)C1)C(C)C [Compound 115]
GI50 [1]: 6 nM | IC50 [2]: 4.7 nM

CCN(C(=O)c1cc(F)ccc1Oc1nncnc1N1CC2(CCN(CC3CCN(c4ccc(C#N)cn4)CC3)CC2)C1)C1CC1 [Compound 116]
GI50 [1]: 70 nM | IC50 [2]: 53.5 nM

N#Cc1ccc(N2CCC(CN3CCC4(CC3)CN(c3ncnnc3Oc3ccc(F)cc3C3=CCOCC3)C4)CC2)nc1 [Compound 117]
GI50 [1]: 255 nM | IC50 [2]: 175 nM

Cc1nc(-c2cc(F)ccc2Oc2nncnc2N2CC3(CCN(CC4CCN(c5ccc(C#N)cn5)CC4)CC3)C2)n(C(C)C)n1 [Compound 118]
GI50 [1]: > 3300 nM | IC50 [2]: > 1000 nM

CCN(C(=O)c1cc(F)ccc1Oc1nncnc1N1CC2(CCN(CC3CCN(c4cccc(C(N)=O)n4)CC3)CC2)C1)C(C)C [Compound 119]
GI50 [1]: 3 nM | IC50 [2]: 2.3 nM

CCN(C(=O)c1cc(F)ccc1Oc1nncnc1N1CC2(CCN(CC3CCN(c4ccnc(C(C)(C)O)c4)CC3)CC2)C1)C(C)C [Compound 120]
GI50 [1]: 36 nM | IC50 [2]: 15.2 nM

CCN(C(=O)c1cc(F)ccc1Oc1nncnc1N1CC2(CCN(CC3CCN(c4cccc(C(C)(C)O)n4)CC3)CC2)C1)C(C)C [Compound 121]
GI50 [1]: 3 nM | IC50 [2]: 1.5 nM

CCN(C(=O)c1cc(F)ccc1Oc1nncnc1N1CC2(CCN(CC3CCC(n4ccccc4=O)CC3)CC2)C1)C(C)C (stereo not drawn) [Compound 122]
GI50 [1]: 119 nM | IC50 [2]: > 200 nM

CCN(C(=O)c1cc(F)ccc1Oc1nncnc1N1CC2(CCN(CC3CC=C(c4ccccn4)CC3)CC2)C1)C(C)C (stereo not drawn) [Compound 123]
GI50 [1]: 39 nM | IC50 [2]: 133 nM

CCN(C(=O)c1cc(F)ccc1Oc1nncnc1N1CC2(CCN(Cc3ccc(-c4ccccn4)cc3)CC2)C1)C(C)C [Compound 124]
GI50 [1]: 505 nM | IC50 [2]: > 200 nM

CCN(C(=O)c1cc(F)ccc1Oc1nncnc1N1CC2(CCN(CC3CCC(O)(c4ccccn4)CC3)CC2)C1)C(C)C (stereo not drawn) [Compound 125]
GI50 [1]: 585 nM | IC50 [2]: > 200 nM

CCN(C(=O)c1cc(F)ccc1Oc1nncnc1N1CC2(CCN(CC3CCN(c4ccc(C#N)cn4)CC3(C)C)CC2)C1)C(C)C (stereo not drawn) [Compound 126]
GI50 [1]: 27 nM | IC50 [2]: 14.6 nM

CCN(C(=O)c1cc(F)ccc1Oc1nncnc1N1CC(C2(NCc3ccc4[nH]c(C#N)cc4c3C)CC2)C1)C(C)C [Compound 127]
GI50 [1]: 242 nM | IC50 [2]: 24.3 nM

CCN(C(=O)c1cc(F)ccc1Oc1nncnc1N1CCC(C2(NCc3ccc4[nH]c(C#N)cc4c3C)CC2)C1)C(C)C (stereo not drawn) [Compound 128]
GI50 [1]: 70 nM | IC50 [2]: 5.1 nM

CCN(C(=O)c1cc(F)ccc1Oc1nncnc1N1CC(C2CCCN2Cc2ccc3[nH]c(C#N)cc3c2C)C1)C(C)C (stereo not drawn) [Compound 129]
GI50 [1]: 199 nM | IC50 [2]: 178 nM

CCN(C(=O)c1cc(F)ccc1Oc1nncnc1N1CC2(CCN(Cc3ccc4c(cc(C#N)n4C4COC4)c3C)CC2)C1)C(C)C [Compound 130]
GI50 [1]: 9 nM | IC50 [2]: 2.7 nM

CCN(C(=O)c1cc(F)ccc1Oc1nncnc1N1CC2(CCN(Cc3ccc4[nH]c(C#N)c(C5=CCOCC5)c4c3C)CC2)C1)C(C)C [Compound 131, 2-((5-(7-((2-cyano-3-(3,6-dihydro-2H-pyran-4-yl)-4-methyl-1H-indol-5-yl)methyl)-2,7-diazaspiro[3.5]nonan-2-yl)-1,2,4-triazin-6-yl)oxy)-N-ethyl-5-fluoro-N-isopropylbenzamide]
GI50 [1]: 18 nM | IC50 [2]: 18 nM

CCN(C(=O)c1cc(F)ccc1Oc1nncnc1N1CC2(CCN(CC3CCN(c4cccc(CO)n4)CC3)CC2)C1)C(C)C [Compound 132, N-ethyl-5-fluoro-2-((5-(7-((1-(6-(hydroxymethyl)pyridin-2-yl)piperidin-4-yl)methyl)-2,7-diazaspiro[3.5]nonan-2-yl)-1,2,4-triazin-6-yl)oxy)-N-isopropylbenzamide]
GI50 [1]: 9 nM | IC50 [2]: 2.7 nM

C=Cc1ccc(N2CCC(CN3CCC4(CC3)CN(c3ncnnc3Oc3ccc(F)cc3C(=O)N(CC)C(C)C)C4)CC2)nn1 [Compound 133, N-ethyl-5-fluoro-N-isopropyl-2-((5-(7-((1-(6-vinylpyridazin-3-yl)piperidin-4-yl)methyl)-2,7-diazaspiro[3.5]nonan-2-yl)-1,2,4-triazin-6-yl)oxy)benzamide]
GI50 [1]: 4 nM | IC50 [2]: 2 nM

C#Cc1ccc(N2CCC(CN3CCC4(CC3)CN(c3ncnnc3Oc3ccc(F)cc3C(=O)N(CC)C(C)C)C4)CC2)nn1 [Compound 134]
GI50 [1]: 2 nM | IC50 [2]: 1.3 nM

CCN(C(=O)c1cc(F)ccc1Oc1nncnc1N1CC2(CCN(CC3CCC(c4ccccn4)CC3)CC2)C1)C(C)C (stereo not drawn) [Compound 135, N-ethyl-5-fluoro-N-isopropyl-2-((5-(7-((4-(pyridin-2-yl)cyclohexyl)methyl)-2,7-diazaspiro[3.5]nonan-2-yl)-1,2,4-triazin-6-yl)oxy)benzamide]
GI50 [1]: 22 nM | IC50 [2]: 55.5 nM

N#Cc1ccc(N2CCC(CN3CCC4(CC3)CN(c3ncnnc3Oc3ccc(F)cc3C3=C(F)C(O)CCC3)C4)CC2)nc1 (stereo not drawn) [Compound 136, 6-(4-((2-(6-((5,6′-difluoro-5′-hydroxy-2′,3′,4′,5′-tetrahydro-[1,1′-biphenyl]-2-yl)oxy)-1,2,4-triazin-5-yl)-2,7-diazaspiro[3.5]nonan-7-yl)methyl)piperidin-1-yl)nicotinonitrile]
GI50 [1]: 170 nM | IC50 [2]: 184 nM
